Assay results reported in PMC9821961, “Ring-Modified Histidine-Containing Cationic Short Peptides Exhibit Anticryptococcal Activity by Cellular Disruption” (Molecules, 2022).
≈ marks a conversion by molar mass, not a printed value.

Experiments:
Assay in all cases: microbe, parasite or virus in culture
[1] = test system: C. krusei; format: cell-based, Candida krusei; conditions: 48 h
Description: (§1) Microbial strains: Microbial strains were procured from National Culture Collection of Pathogenic Fungi (NCCPF) at the Postgraduate Institute of Medical Education & Research (PGIMER), Chandigarh and Microbial Type Culture Collection and Gene bank (MTCC) at the Institute of Microbial Technology (IMTECH), Chandigarh, India. Peptides were screened against five different strains of fungi: viz. Candida albicans (NCCPF400034), Candida glabrata (MTCC 3019), Candida parapsilosis (NCCPF 440002), Candida krusei (NCCPF 440002) and Cryptococcus neoformans (NCCPF250316), and five strains of bacteria: viz. Escherichia coli (MTCC 2961), Staphylococcus aureus (MTCC 3160), Enterococcus faecalis (MTCC 439), Streptococcus pyogenes (MTCC 442) and Pseudomonas aeruginosa (MTCC 3542).
(§2) Growth media: Antifungal susceptibility testing was carried out using standard broth microdilution assays as per the Clinical and Laboratory Standards Institute (CLSI) guidelines for fungi. RPMI 1640 (Sigma), yeast extract, peptone and dextrose (YPED, Himedia) were used as the incubation broths. The cells were diluted to a cell density of 10^3 colony forming unit (CFU/mL) and incubated at 30 °C for 48 h. Furthermore, Muller Hinton (Himedia) media was utilized for bacterial strains and antibacterial activity was evaluated per CLSI guidelines for bacteria. Bacterial cells were diluted to a cell density of 10^5 CFU/mL and incubated at 37 °C for 24 h. Amphotericin B (Himedia, India) and rifampicin (Himedia, India) were used as standard drugs for the evaluation of activity against all the fungal and bacterial strains, respectively.
(§3) The stock solutions of peptides (2 mg/mL) were prepared in DMSO. Specific amounts of peptide from stock solution were added to a 96-well microtiter plate containing 100 μL of growth media and then serially diluted two-fold. A further 100 μL of growth media containing microbial cells were added to each well and incubated at 30–37 °C for 24–48 h. The optical density (OD) was measured at 600 nm using a BioStack Ready (BioTek Instruments, Winooski, VT, USA) microplate reader to analyze microbial growth inhibition, and IC50 and MIC values were calculated. To visualize the growth and inhibition pattern, a solution of 3-(4,5-dimethylthiazol-2-yl)-2,5-diphenyltetrazolium bromide (MTT) in water was added to the plate and incubated for 2–3 h. MTT reacts with the mitochondrial dehydrogenases, which are present only in a viable cell, to give blue colored formazan crystals. Therefore, a darker color indicates a high number of viable cells; however, non-viable cells appear pale or colorless.

[2] = test system: C. neoformans; format: cell-based, Cryptococcus neoformans
Description: as §1, §2, §3

[3] = test system: C. albicans; format: cell-based, Candida albicans; conditions: 48 h
Description: as §1, §2, §3

[4] = test system: C. parapsilosis; format: cell-based, Candida parapsilosis; conditions: 48 h
Description: as §1, §2, §3

[5] = test system: C. glabrata; format: cell-based, Candida glabrata; conditions: 48 h
Description: as §1, §2, §3

Compound | IC50 [1] | MIC [1] | IC50 ([2]; 48 h) | MIC ([2]; 48 h) | IC50 [3] | MIC [3] | IC50 [4] | MIC [4] | IC50 [5] | MIC [5] | MIC ([2]; C. neoformans, lowest test concentration with no detectable growth) | Fold reduction of activity ([2]; C. neoformans, on replacing methyl of the tert-butyl moiety with fluorine)
COC(=O)[C@H](Cc1ncn(Cc2ccccc2)c1I)NC(=O)[C@H](Cc1c[nH]c2ccccc12)NC(=O)OC(C)(C)C [9a] | >35.2 µg/mL | >64.0 µg/mL | 17.78 µg/mL (≈ 26.5 µM) | 32.34 µg/mL (≈ 48.2 µM) | >35.2 µg/mL | >64.0 µg/mL | >35.2 µg/mL | >64.0 µg/mL | >35.2 µg/mL | >64.0 µg/mL | – | –
COC(=O)[C@H](Cc1ncn(Cc2ccc(C(C)(C)C)cc2)c1I)NC(=O)[C@H](Cc1c[nH]c2ccccc12)NC(=O)OC(C)(C)C [9b] | >35.2 µg/mL | >64.0 µg/mL | >35.2 µg/mL | >64.0 µg/mL | >35.2 µg/mL | >64.0 µg/mL | >35.2 µg/mL | >64.0 µg/mL | >35.2 µg/mL | >64.0 µg/mL | – | –
COC(=O)[C@H](Cc1ncn(Cc2ccc(C(C)C)cc2)c1I)NC(=O)[C@H](Cc1c[nH]c2ccccc12)NC(=O)OC(C)(C)C [9c] | >35.2 µg/mL | >64.0 µg/mL | 20.39 µg/mL (≈ 28.6 µM) | 37.08 µg/mL (≈ 52 µM) | >35.2 µg/mL | >64.0 µg/mL | >35.2 µg/mL | >64.0 µg/mL | >35.2 µg/mL | >64.0 µg/mL | – | –
COC(=O)[C@H](Cc1ncn(Cc2cccc(C(F)(F)F)c2)c1I)NC(=O)[C@H](Cc1c[nH]c2ccccc12)NC(=O)OC(C)(C)C [9e] | >35.2 µg/mL | >64.0 µg/mL | 20.71 µg/mL (≈ 28 µM) | 37.65 µg/mL (≈ 50.9 µM) | >35.2 µg/mL | >64.0 µg/mL | >35.2 µg/mL | >64.0 µg/mL | >35.2 µg/mL | >64.0 µg/mL | – | –
COC(=O)[C@H](Cc1ncn(Cc2ccccc2C(F)(F)F)c1I)NC(=O)[C@H](Cc1c[nH]c2ccccc12)NC(=O)OC(C)(C)C [9f] | >35.2 µg/mL | >64.0 µg/mL | 30.56 µg/mL (≈ 41.3 µM) | 55.57 µg/mL (≈ 75.1 µM) | >35.2 µg/mL | >64.0 µg/mL | >35.2 µg/mL | >64.0 µg/mL | >35.2 µg/mL | >64.0 µg/mL | – | –
COC(=O)[C@H](Cc1ncn(Cc2ccc(C(F)(F)F)cc2)c1I)NC(=O)[C@H](Cc1c[nH]c2ccccc12)NC(=O)OC(C)(C)C [9g] | >35.2 µg/mL | >64.0 µg/mL | >35.2 µg/mL | >64.0 µg/mL | >35.2 µg/mL | >64.0 µg/mL | >35.2 µg/mL | >64.0 µg/mL | >35.2 µg/mL | >64.0 µg/mL | – | –
COC(=O)[C@H](Cc1ncn(Cc2ccc([N+](=O)[O-])cc2)c1I)NC(=O)[C@H](Cc1c[nH]c2ccccc12)NC(=O)OC(C)(C)C [9h] | >35.2 µg/mL | >64.0 µg/mL | >35.2 µg/mL | >64.0 µg/mL | >35.2 µg/mL | >64.0 µg/mL | >35.2 µg/mL | >64.0 µg/mL | >35.2 µg/mL | >64.0 µg/mL | – | –
COC(=O)[C@H](Cc1ncn(Cc2ccc(F)c(F)c2)c1I)NC(=O)[C@H](Cc1c[nH]c2ccccc12)NC(=O)OC(C)(C)C [9i] | >35.2 µg/mL | >64.0 µg/mL | 17.62 µg/mL (≈ 24.9 µM) | 32.05 µg/mL (≈ 45.3 µM) | >35.2 µg/mL | >64.0 µg/mL | >35.2 µg/mL | >64.0 µg/mL | >35.2 µg/mL | >64.0 µg/mL | – | –
COC(=O)[C@H](Cc1ncn(Cc2cc(F)cc(F)c2)c1I)NC(=O)[C@H](Cc1c[nH]c2ccccc12)NC(=O)OC(C)(C)C [9j] | >35.2 µg/mL | >64.0 µg/mL | 17.73 µg/mL (≈ 25.1 µM) | 32.25 µg/mL (≈ 45.6 µM) | >35.2 µg/mL | >64.0 µg/mL | >35.2 µg/mL | >64.0 µg/mL | >35.2 µg/mL | >64.0 µg/mL | – | –
COC(=O)[C@H](Cc1ncn(Cc2cccc(F)c2)c1I)NC(=O)[C@H](Cc1c[nH]c2ccccc12)NC(=O)OC(C)(C)C [9k] | >35.2 µg/mL | >64.0 µg/mL | 18.16 µg/mL (≈ 26.3 µM) | 32.02 µg/mL (≈ 46.4 µM) | >35.2 µg/mL | >64.0 µg/mL | >35.2 µg/mL | >64.0 µg/mL | >35.2 µg/mL | >64.0 µg/mL | – | –
COC(=O)[C@H](Cc1ncn(Cc2cccc(Cl)c2)c1I)NC(=O)[C@H](Cc1c[nH]c2ccccc12)NC(=O)OC(C)(C)C [9l] | >35.2 µg/mL | >64.0 µg/mL | 18.59 µg/mL (≈ 26.3 µM) | 33.80 µg/mL (≈ 47.9 µM) | >35.2 µg/mL | >64.0 µg/mL | >35.2 µg/mL | >64.0 µg/mL | >35.2 µg/mL | >64.0 µg/mL | – | –
COC(=O)[C@H](Cc1ncn(Cc2cccc(Br)c2)c1I)NC(=O)[C@H](Cc1c[nH]c2ccccc12)NC(=O)OC(C)(C)C [9m] | >35.2 µg/mL | >64.0 µg/mL | 18.63 µg/mL (≈ 24.8 µM) | 33.88 µg/mL (≈ 45.1 µM) | >35.2 µg/mL | >64.0 µg/mL | >35.2 µg/mL | >64.0 µg/mL | >35.2 µg/mL | >64.0 µg/mL | – | –
COC(=O)[C@H](Cc1ncn(Cc2cccc(I)c2)c1I)NC(=O)[C@H](Cc1c[nH]c2ccccc12)NC(=O)OC(C)(C)C [9n] | >35.2 µg/mL | >64.0 µg/mL | 23.58 µg/mL (≈ 29.6 µM) | 42.87 µg/mL (≈ 53.8 µM) | >35.2 µg/mL | >64.0 µg/mL | >35.2 µg/mL | >64.0 µg/mL | >35.2 µg/mL | >64.0 µg/mL | – | –
COC(=O)[C@H](Cc1ncn(Cc2ccccc2I)c1I)NC(=O)[C@H](Cc1c[nH]c2ccccc12)NC(=O)OC(C)(C)C [9o] | >35.2 µg/mL | >64.0 µg/mL | >35.2 µg/mL | >64.0 µg/mL | >35.2 µg/mL | >64.0 µg/mL | >35.2 µg/mL | >64.0 µg/mL | >35.2 µg/mL | >64.0 µg/mL | – | –
COC(=O)[C@H](Cc1ncn(Cc2ccccc2)c1I)NC(=O)[C@@H](N)Cc1c[nH]c2ccccc12 [10a] | >35.2 µg/mL | >64.0 µg/mL | 17.68 µg/mL (≈ 30.9 µM) | 32.15 µg/mL (≈ 56.3 µM) | >35.2 µg/mL | >64.0 µg/mL | >35.2 µg/mL | >64.0 µg/mL | >35.2 µg/mL | >64.0 µg/mL | – | –
COC(=O)[C@H](Cc1ncn(Cc2ccccc2C(F)(F)F)c1I)NC(=O)[C@@H](N)Cc1c[nH]c2ccccc12 [10f] | >35.2 µg/mL | >64.0 µg/mL | 17.70 µg/mL (≈ 27.7 µM) | 32.18 µg/mL (≈ 50.3 µM) | >35.2 µg/mL | >64.0 µg/mL | >35.2 µg/mL | >64.0 µg/mL | >35.2 µg/mL | >64.0 µg/mL | – | –
COC(=O)[C@H](Cc1ncn(Cc2ccc(C(F)(F)F)cc2)c1I)NC(=O)[C@@H](N)Cc1c[nH]c2ccccc12 [10g] | >35.2 µg/mL | >64.0 µg/mL | 13.53 µg/mL (≈ 21.2 µM) | – | >35.2 µg/mL | >64.0 µg/mL | >35.2 µg/mL | >64.0 µg/mL | >35.2 µg/mL | >64.0 µg/mL | 24.6 µg/mL (≈ 38.5 µM) | 2.6 fold
